From patent publication US5043332A, “Novel 11β-substituted -19-nor-steriods” (priority 1981, dated 1991) come the findings set out here.

Experiment [1] addresses T1, Androgen receptor of prostate of rats (Rattus norvegicus, UniProt P15207).
T1 construct: The prostates were removed, weighed and homogenized at 0° C; from tissue; host or cells: rat prostate, 105,000 g supernatant (castrated male Sprague-Dawley rats)
T1 sequence (P15207 1-902): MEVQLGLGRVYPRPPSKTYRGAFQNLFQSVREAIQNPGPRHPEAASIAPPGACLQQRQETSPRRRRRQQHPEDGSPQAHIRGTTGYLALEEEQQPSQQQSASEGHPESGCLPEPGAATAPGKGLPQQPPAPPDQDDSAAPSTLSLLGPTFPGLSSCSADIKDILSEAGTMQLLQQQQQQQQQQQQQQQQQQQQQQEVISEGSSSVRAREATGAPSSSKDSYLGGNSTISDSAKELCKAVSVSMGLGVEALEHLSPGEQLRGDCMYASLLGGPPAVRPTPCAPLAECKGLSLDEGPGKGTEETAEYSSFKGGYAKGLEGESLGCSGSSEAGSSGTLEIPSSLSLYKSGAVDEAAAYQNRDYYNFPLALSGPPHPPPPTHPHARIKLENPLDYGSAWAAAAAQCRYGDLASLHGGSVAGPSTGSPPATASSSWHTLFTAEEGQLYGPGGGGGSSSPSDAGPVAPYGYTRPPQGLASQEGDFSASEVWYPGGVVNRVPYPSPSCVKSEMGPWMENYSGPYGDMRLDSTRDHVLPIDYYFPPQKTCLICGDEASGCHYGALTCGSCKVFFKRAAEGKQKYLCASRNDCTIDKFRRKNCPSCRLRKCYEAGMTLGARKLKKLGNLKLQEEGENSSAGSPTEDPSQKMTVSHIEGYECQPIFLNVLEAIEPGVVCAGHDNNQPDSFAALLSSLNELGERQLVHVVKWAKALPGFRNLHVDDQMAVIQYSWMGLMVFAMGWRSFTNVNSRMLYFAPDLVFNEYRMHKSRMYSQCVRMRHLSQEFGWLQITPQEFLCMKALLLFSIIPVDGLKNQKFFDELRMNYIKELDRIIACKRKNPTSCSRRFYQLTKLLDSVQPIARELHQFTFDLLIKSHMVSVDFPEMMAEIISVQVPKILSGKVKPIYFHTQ
The experiment can be described thus: Androgen receptor binding (displacement of tritiated product P). As to conditions: for affinity for androgen receptors (in words): conclusion. Here is the method: B. Androgen receptor of prostate of rats
Male Sprague-Dawley EPOS rats weighing of 160 to 200 g were castrated and 24 hours later, the animals were killed. The prostates were removed, weighed and homogenized at 0° C. with a polytetrafluoroethylene-glass Potter with a buffered TS solution (Tris, 10 mM, 0.25M Saccharose, HCl-pH of 7.4) using 1 g of tissue per 5 ml of TS. The homogenate was then ultracentrifuged at 105,000 g for 60 […] (T) of product P or 17α-methyl-Δ^4,9,11 -estratriene-17β-ol-3-one in the presence of increasing concentration (0-1,000×10^-9 M) of either cold P, cold testosterone or the test compound. The concentration of tied tritiated (B) was measured for each incubate by the technique of adsorption on carbon-dextran.
(§1) The calculation of the relative affinity of […] (ARL) was identical for all of the above receptor tests. One traced the following two curves: the percentage of tied tritiated hormone B/T as a function of the logarithm of the cold hormone concentration and B/T as a function of the logarithm of the concentration of the cold test product. One determined the line of the equation. [formula]
(§2) The intersection of the I50 line and the curves permits one to determine the concentrations of the cold hormone of the reference (CH) and the cold test compound (CX) which inhibit by 50% the tieing of tritiated hormone with the receptor. The relative affinity of tieing (ARL) of the test product was determined by the equation: [formula]

Experiment [2] deals with T2, Gluocorticoid receptor of thymus of rats (Rattus norvegicus, UniProt P06536).
T2 construct: The thymus were removed and homogenized at 0° C; from tissue; host or cells: rat thymus, 105,000 g supernatant (adrenalectomized male Sprague-Dawley rats)
T2 sequence (P06536 1-795): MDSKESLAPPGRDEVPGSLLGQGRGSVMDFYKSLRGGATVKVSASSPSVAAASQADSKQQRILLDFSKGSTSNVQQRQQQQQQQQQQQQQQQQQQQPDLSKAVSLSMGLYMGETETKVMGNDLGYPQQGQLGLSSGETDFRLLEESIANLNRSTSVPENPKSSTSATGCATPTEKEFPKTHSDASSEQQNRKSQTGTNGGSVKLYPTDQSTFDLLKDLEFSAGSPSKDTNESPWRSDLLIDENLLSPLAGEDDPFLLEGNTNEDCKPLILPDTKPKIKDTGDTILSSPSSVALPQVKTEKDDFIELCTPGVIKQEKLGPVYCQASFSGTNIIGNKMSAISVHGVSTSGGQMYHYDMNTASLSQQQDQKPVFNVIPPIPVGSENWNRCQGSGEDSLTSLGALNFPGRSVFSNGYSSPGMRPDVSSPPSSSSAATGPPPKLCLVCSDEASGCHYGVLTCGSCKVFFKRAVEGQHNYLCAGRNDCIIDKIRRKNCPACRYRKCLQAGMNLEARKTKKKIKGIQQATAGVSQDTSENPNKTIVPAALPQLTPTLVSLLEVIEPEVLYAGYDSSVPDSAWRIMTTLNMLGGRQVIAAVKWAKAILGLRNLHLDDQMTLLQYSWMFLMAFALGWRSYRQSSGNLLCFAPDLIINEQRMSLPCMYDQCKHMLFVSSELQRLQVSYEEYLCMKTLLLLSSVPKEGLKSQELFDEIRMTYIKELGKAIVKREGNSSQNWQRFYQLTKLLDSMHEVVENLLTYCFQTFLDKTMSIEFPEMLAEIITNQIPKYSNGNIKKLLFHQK
The experiment in a line: Glucocorticoid receptor binding (displacement of tritiated dexamethasone). As to conditions: for affinity for glucocorticoid receptors (in words): conclusion. As to the method:
D. Gluocorticoid receptor of thymus of rats
Male Sprague-Dawley EPOS rats weighing 160 to 200 g were surrenalectomized and the animals were killed 4 to 8 days later. The thymus were removed and homogenized at 0° C. in a buffered TS solution of 10 mM, Tris, 0.25M of Saccharose, 2 mM of dithiothreitol HCl for a pH of 7.4 using a polytetrafluoroethylene-glass Potter at a rate of 1 g of tissue per 10 ml of TS. […] The concentration of tied tritiated dexamethasone (B) was measured for each incubate by the adsorption on carbon-dextran technique.
as §1, §2

The mark [3] stands for this setting: second table, incubation 24 H at 0° C.
The mark [4] stands for this setting: second table, incubation 4 H at 0° C.

As to `C=C(C)C#C[C@]1(O)CC[C@H]2[C@@H]3CCC4=CC(=O)CCC4=C3[C@@H](c3ccc(N(C)C)cc3)C[C@@]21C` [Example 23, 11β-[4-(N,N-dimethylamino)-phenyl]-23-methyl-19,21-dinor-17α-Δ^4,9,23-cholatriene-20-yn-17β-ol-3-one], in experiment [1] (setting [3]), the “relative affinity of tieing (ARL), Androgen” value (shortened to “relative affinity … Androgen”) was 14,7. The “relative affinity of tieing (ARL), Glucocorticoid” value (“relative affinity … Glucocorticoid” below) in experiment [2] (setting [4]) is listed as 212; in experiment [2] (setting [3]), 167.
`CC#C[C@]1(O)CC[C@H]2[C@@H]3CCC4=CC(=O)CCC4=C3[C@@H](c3ccc(N(C)C)cc3)C[C@@]21C` [Example 19, 11β-[4-(N,N-dimethylamino)-phenyl]-17α-(prop-1-ynyl)-Δ^4,9-estradiene-17β-ol-3-one]: in experiment [2], the “affinity for glucocorticoid receptors (in words)” value is reported as “very remarkable affinity”.
With `CC#C[C@]1(O)CC[C@H]2[C@@H]3CCC4=C(CCC(=O)C4)[C@H]3[C@@H](c3ccc(N(C)C)cc3)C[C@@]21C` [Example 10, 11β-(4-dimethylaminophenyl)-17α-(prop-1-ynyl)-Δ^5(10) -estrene-17β-ol-3-one], the figures for the “relative affinity … Glucocorticoid” value in experiment [2] (incubation 4 H at 0° C.) and in experiment [2] (incubation 24 H at 0° C.) were 83 and 115, respectively.
For the compound `CC#C[C@]1(O)CC[C@H]2[C@@H]3CCC4=CC(=O)CCC4=C3[C@@H](c3ccc([N+](C)(C)[O-])cc3)C[C@@]21C` [Example 35, N-oxide of 11β-[4-(N,N-dimethylamino)-phenyl]-17α-(prop-1-ynyl)-Δ^4,9-estradiene-17β-ol-3-one], the “relative affinity … Androgen” value in experiment [1] (setting [3]) is 2,2. For the same compound, the “relative affinity … Glucocorticoid” value in experiment [2] (setting [4]) is on record as 7,8; in experiment [2] (setting [3]), 5.
In the case of `CC#C[C@]1(O)CC[C@H]2[C@@H]3CCC4=CC(=O)[C@H](C)CC4=C3[C@@H](c3ccc(N(C)C)cc3)C[C@@]21C` [5 (2α), 2α-methyl-11β-(4-dimethylaminophenyl)-17α-(prop-1-ynyl)-Δ^4,9-estradiene-17β-ol-3-one], the “relative affinity … Androgen” value in experiment [1] (incubation 1/2H at 0° C.) is 0,5; in experiment [1] (incubation 24 H at 0° C.) it was 0,4. For the same compound, the “relative affinity … Glucocorticoid” value in experiment [2] (incubation 4 H at 0° C.) is 214; in experiment [2] (incubation 24 H at 0° C.), 255.
For the compound `CN(C)c1ccc([C@H]2C[C@@]3(C)[C@@H](CC[C@@]3(O)C#C[Si](C)(C)C)[C@@H]3CCC4=CC(=O)CCC4=C32)cc1` [Example 44, 11β-[4-(N,N-dimethylamino)-phenyl]-21-trimethylsilyl-19-nor-17α-Δ^4,9-pregnadiene-20-yne-17β-ol-3-one], the “relative affinity … Androgen” value in experiment [1] (setting [3]) is recorded as 4,6. The results for the “relative affinity … Glucocorticoid” value in experiment [2] (setting [4]) and in experiment [2] (setting [3]) were 79 and 104, respectively.
Take `CC#C[C@]1(OC(C)=O)CC[C@H]2[C@@H]3CCc4cc(O)ccc4[C@H]3[C@@H](c3ccc(N(C)C)cc3)C[C@@]21C` [2 (17 OAc), 11β-(4-dimethylaminophenyl)-17α-(prop-1-ynyl)-17β-acetoxy-Δ^1,3,5(10) -estratriene-3-ol]: the “relative affinity … Androgen” value in experiment [1] (incubation 1/2H at 0° C.) and in experiment [1] (incubation 24 H at 0° C.) was < 0,1 each time. In addition, the “relative affinity … Glucocorticoid” value in experiment [2] (incubation 4 H at 0° C.) is reported as 58; in experiment [2] (incubation 24 H at 0° C.) it was 100.
`CC#C[C@]1(O)CC[C@H]2[C@@H]3CCC4=CC(=O)[C@@H](C)CC4=C3[C@@H](c3ccc(N(C)C)cc3)C[C@@]21C` [5 (2β), 2-methyl-11β-(4-dimethylaminophenyl)-17α-(prop-1-ynyl)-Δ^4,9-estradiene-17β-ol-3-one]: the “relative affinity … Androgen” value in experiment [1] (incubation 1/2H at 0° C.) was 0,7; in experiment [1] (incubation 24 H at 0° C.), 0,5. The “relative affinity … Glucocorticoid” value in experiment [2] (incubation 4 H at 0° C.) came to 224; in experiment [2] (incubation 24 H at 0° C.), 299.
Consider `C#C[C@@]1(O)CC[C@H]2[C@@H]3CCC4=CC(=O)CCC4=C3[C@@H](c3ccc(N(C)C)cc3)C[C@@]21C` [Example 21, 11β-[4-(N,N-dimethylamino)-phenyl]-17β-ethynyl-Δ^4,9-estradiene-17α-ol-3-one], for which the “relative affinity … Androgen” value in experiment [1] (setting [3]) was 7,3. For the same compound, the “relative affinity … Glucocorticoid” value in experiment [2] (setting [4]) was 171; in experiment [2] (setting [3]), 118.
With `CC#C[C@]1(O)CC[C@H]2[C@@H]3CCC4=CC(=O)C(C)(C)CC4=C3[C@@H](c3ccc(N(C)C)cc3)C[C@@]21C` [Example 1, 2,2-dimethyl-11β-(4-dimethylaminophenyl)-17α-(prop-1-ynyl)-Δ^4,9-estradiene-17β-ol-3-one], the “relative affinity … Glucocorticoid” value was found to be 97 in experiment [2] (incubation 4 H at 0° C.) and 38 in experiment [2] (incubation 24 H at 0° C.).
With `CC#C[C@]1(O)CC[C@H]2[C@@H]3CCC4=CC(=O)[C@H](C)CC4=C3[C@@H](c3ccc(N(C)C)cc3)C[C@@]21C` [Example 5, 2α-methyl-11β-(4-dimethylaminophenyl)-17α-(prop-1-ynyl)-Δ^4,9-estradiene-17β-ol-3-one], the “affinity for androgen receptors (in words)” value in experiment [1] is on record as “slightly moderate affinity”. In addition, in experiment [2], the “affinity for glucocorticoid receptors (in words)” value is listed as “very remarkable affinity”.
For `C#C[C@]1(O)CC[C@H]2[C@@H]3CCC4=CC(=O)CCC4=C3[C@@H](c3ccc(N(C)C)cc3)C[C@@]21C` [Example 32, 11β-[4-(N,N-dimethylamino)-phenyl]-17α-ethynyl-Δ^4,9-estradiene-17β-ol-3-one], the “affinity for androgen receptors (in words)” value in experiment [1] is listed as “slightly moderate affinity”. Besides, the “relative affinity … Androgen” value in experiment [1] (setting [3]) worked out at 68. For the same compound, the “affinity for glucocorticoid receptors (in words)” value in experiment [2] is on record as “very remarkable affinity”. For the same compound, the “relative affinity … Glucocorticoid” value in experiment [2] (setting [4]) worked out at 279; in experiment [2] (setting [3]), 235.
